Laboratory results: US12264349B2, “Method for producing monoterpenoid compounds” (John Innes Centre, priority 2018, dated 2025)
Like-named read-outs stand apart in the source and are kept apart here.

Experiments:
NEPS1-T154G = target: T1, NEPS1-T154G (Nepeta racemosa, UniProt A0A3Q8GL18, T154G); type: biochemical, Nepeta mussinii
T1 construct: This gene-length amplicon was gel-purified and then cloned into the pOPINF vector; made in house; host or cells: E. coli SoluBL21
Protocol: (§1) Kinetics and dehydrogenase activity measurements were conducted spectrophotometrically on a PerkinElmer Lambda 35 instrument at a wavelength of 340 nm and in cuvettes with 1 cm path length. The reactions were conducted at 25° C. and with 50 mM HEPES pH 8.0, […].
(§2) Reactions were initiated by addition of the enzyme, and absorbance values were recorded at a rate of 1 Hz. Enzyme concentration was varied from 0.025-0.25 μM to maintain a linear rate. The R software environment was used to fit linear initial rates over the first 20 s of the enzyme reaction. For Michaelis-Menten experiments, at least 8 data points were obtained for each substrate combination. The Michaelis-Menten equation was fitted to the data points in R by the nls function to obtain values for the kinetic parameters. Kinetic parameters are reported as a best fit estimate±SE. For activity measurements with NADP^+ and NADH, single substrate concentrations were employed. Velocity values (in italics) are provided as a mean of triplicate measurements±standard deviation from the mean.

NEPS1-WT = target: T2, NEPS1-WT (Nepeta racemosa, UniProt A0A3Q8GL18); assay: NEPS1 dehydrogenase activity kinetics, spectrophotometric at 340 nm; type: biochemical, Nepeta mussinii; conditions: for Kcat or V (velocity V, single substrate concentration): substrate 1000 μM
T2 construct: made in house; host or cells: E. coli SoluBL21
T2 sequence (A0A3Q8GL18 1-271): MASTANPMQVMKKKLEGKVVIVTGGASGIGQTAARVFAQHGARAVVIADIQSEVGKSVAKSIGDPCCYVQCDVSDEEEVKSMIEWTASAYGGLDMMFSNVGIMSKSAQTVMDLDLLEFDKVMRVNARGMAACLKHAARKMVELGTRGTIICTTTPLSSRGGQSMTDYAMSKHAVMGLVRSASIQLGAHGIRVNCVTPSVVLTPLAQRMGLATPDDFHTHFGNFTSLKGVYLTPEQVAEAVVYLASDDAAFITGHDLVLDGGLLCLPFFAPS
Protocol: as §1, §2

[1] = Nepetalactol stability in buffer (GC-MS); type: physicochemical; conditions: 30° C.
Protocol: Cis-trans-nepetalactol (4a, FIG. 10A) and cis-cis-nepetalactol (4b, FIG. 10B) stability in 10 mM and 0.5 M MOPS pH 7.5. 4a appears to be stable in both these conditions. 4b appears mostly stable in 10 mM MOPS pH 7.5, but is not stable in high buffer concentrations (0.5 M MOPS pH 7.5) and degrades to form iridodials 5. Chromatograms are all GC-MS TICs, RT=retention time (min), incubation was 16 h, 30° C.
End-point assays with purified enzymes were conducted at a total volume of 100 μL. Reactions using either 8-oxogeranial 2 or 8-oxocitronellal 6 as a substrate contained 1% v/v MeCN. In experiments examining the effect of buffer concentrations, enzymes were diluted with water. Trace residual concentrations of sample buffer in the enzyme sample were too low to effect product profiles. All reactions were conducted at 30° C. Reactions containing 8-oxogeranial 2 as a substrate were incubated for 3 h, whilst reactions with 8-oxocitronellal 6 were incubated for 16 h, unless noted. At reaction termination, a camphor standard (10 μL, stock 1 mM in MeCN) and EtOAc (100 μL) were added. The reactions were vortexed, centrifuged (10,000×g, 10 min) and the organic layer was used in GC-MS analysis. The concentrations of components in reactions varied extensively and so for each reaction the Figure or Figure legend describe the exact conditions employed.
Samples were injected in split mode (2 μL, split ratio 5:1) at an inlet temperature of 220° C. on a Hewlett Packard 6890 GC-MS equipped with a 5973 mass selective detector (MSD), and an Agilent 7683B series injector and autosampler. Separation was performed on a Zebron ZB5-HT-INFERNO column (5% phenyl methyl siloxane; length: 35 m; diameter: 250 μm) with guard column. Helium was used as mobile phase at a constant flow rate of 1.2 mL/min and average velocity 37 cm/s. After 5 min at 80° C., the column temperature was increased to 110° C. at a rate of 2.5 K/min, then to 280° C. at 120 K/min, and kept at 280° C. for another 4 min. A solvent delay of 5 min was allowed before collecting MS spectra at a fragmentation energy of 70 eV. An internal standard of (+)-camphor was used for retention time calibration. Chemically characterised standards were used to identify compounds by retention time and electron impact spectra.

[2] = co-substrate NAD+ 1 mM, substrate 50-750 μM
[3] = co-substrate NAD+ 1 mM, 25° C., 50 mM HEPES pH 8.0
[4] = co-substrate 4a 0.5 mM, substrate 7.8-1000 μM
[5] = co-substrate 4a 0.1 mM, substrate 1-250 μM

**Q.** What does the source list for CC1=COC(O)[C@H]2[C@@H]1CC[C@@H]2C (relative stereo) [4a, cis-trans-nepetalactol]?
**A.** increase in Km caused by the T154G substitution (NEPS1-T154G; NEPS1-T154G versus NEPS1-WT): 150 fold; Kcat or V (kcat, substrate concentration varied) (NEPS1-T154G; [2]): 0.0804 ± 0.005 s⁻¹; Km (NEPS1-T154G; [2]): 251 ± 37 µM; Kcat or V (kcat, substrate concentration varied) (NEPS1-WT; [3]): 0.148 ± 0.002 s⁻¹; Km (NEPS1-WT; [3]): 1.6 ± 0.1 µM; stability in buffer ([1]; 10 mM MOPS pH 7.5, 16 h): stable; stability in buffer ([1]; 0.5 M MOPS pH 7.5, 16 h): stable

**Q.** For NC(=O)c1ccc[n+]([C@@H]2O[C@H](COP(=O)([O-])OP(=O)(O)OC[C@H]3O[C@@H](n4cnc5c(N)ncnc54)[C@H](OP(=O)(O)O)[C@@H]3O)[C@@H](O)[C@H]2O)c1 [NADP+, reference compound], which “Kcat or V (velocity V, single substrate concentration)” value (NEPS1-WT; co-substrate 4a 0.1 mM) is on record?
**A.** 0.020 ± 0.005 s⁻¹

**Q.** For NC(=O)c1ccc[n+]([C@@H]2O[C@H](COP(=O)([O-])OP(=O)(O)OC[C@H]3O[C@@H](n4cnc5c(N)ncnc54)[C@H](O)[C@@H]3O)[C@@H](O)[C@H]2O)c1 [NAD+, oxidized nicotinamide adenine dinucleotide, reference compound], which “Kcat or V (kcat, substrate concentration varied)” value (NEPS1-T154G; [4]) is on record?
**A.** 0.0599 ± 0.002 s⁻¹

**Q.** What about the Km (NEPS1-T154G; [4]) of the same molecule?
**A.** 26 ± 4 µM

**Q.** And the “Kcat or V (kcat, substrate concentration varied)” value (NEPS1-WT; [5])?
**A.** 0.173 ± 0.003 s⁻¹

**Q.** What about the Km (NEPS1-WT; [5]) of the same molecule?
**A.** 3.5 ± 0.3 µM

**Q.** For CC1=COC(=O)[C@H]2[C@@H]1CC[C@@H]2C (relative stereo) [1a, cis-trans-nepetalactone], which “Kcat or V (velocity V, single substrate concentration)” value (NEPS1-WT; co-substrate NADH 0.1 mM) is on record?
**A.** no reaction

**Q.** With CC1=COC(O)[C@H]2[C@@H](C)CC[C@@H]12 (relative stereo) [4b, cis-cis-nepetalactol] as the molecule, how does the “Kcat or V (kcat, substrate concentration varied)” value (NEPS1-WT; [3]) read?
**A.** 0.32 ± 0.01 s⁻¹

**Q.** And the Km (NEPS1-WT; [3])?
**A.** 4.9 ± 0.8 µM

**Q.** What about the stability in buffer ([1]; 10 mM MOPS pH 7.5, 16 h) of the same molecule?
**A.** mostly stable

**Q.** What about the stability in buffer ([1]; 0.5 M MOPS pH 7.5, 16 h) of the same molecule?
**A.** not stable
